Values after ≈ are worked out from the molar mass of the structure shown.

These results are taken from ChEMBL document CHEMBL1127059, “Synthesis and antiviral activity of 5'-deoxypyrazofurin” (J Med Chem, 1993).

The subject of assay [1] is Vero. As to the kind of experiment: Tested for inhibitory effect on RNA virus SFV in Vero cell line. In kind it is functional, cell-based. As to conditions: Chlorocebus sabaeus.
For assay [2], the system named is ESM. The assay is described as follows: Tested for inhibitory effect on DNA virus VV in ESM cell line. It is filed as functional, cell-based. The note with it: Homo sapiens.
Assay [3] has as its system Vero. The assay is described as follows: Tested for inhibitory effect on RNA virus Reo-1 in Vero cell line. In kind it is functional, cell-based. As to conditions: Chlorocebus sabaeus.
Assay [4] deals with MDCK. It is filed as functional, cell-based. The note with it: Canis lupus familiaris.
Assay [5] concerns HEL. As to the kind of experiment: Tested for inhibitory effect on DNA virus VZV (YS) in HEL cell line. It is filed as functional, cell-based. As to conditions: Homo sapiens.
For assay [6], the system named is HEL. The assay is described as follows: Tested for inhibitory effect on DNA virus TK-VZV (YS/R) in HEL cell line. It is filed as functional, cell-based. The note with it: Homo sapiens.
Assay [7] has as its system MT4. The assay is described as follows: Tested for inhibitory effect on RNA virus HIV-2 in MT-4 cell line. The note with it: Homo sapiens. It is filed as functional, cell-based.
The test system of assay [8] is Vero. As to the kind of experiment: Tested for inhibitory effect on RNA virus Coxsackie B4 in Vero cell line. It is filed as functional, cell-based. As to conditions: Chlorocebus sabaeus.
The subject of a further assay is FM3A. In kind it is functional, cell-based. The note with it: Mus musculus.
Assay [9] relates to HeLa. The assay is described as follows: Tested for inhibitory effect on RNA virus VSV in HeLa cell line. It is filed as functional, cell-based. The note with it: Homo sapiens.
The subject of assay [10] is HEL. As to the kind of experiment: Tested for inhibitory effect on DNA virus CMV (AD-169) in HEL cell line. It is filed as functional, cell-based. As to conditions: Homo sapiens.
In assay [11] the test system is ESM. The assay is described as follows: Tested for inhibitory effect on DNA virus HSV-2 (G) in ESM cell line. The note with it: Homo sapiens. It is filed as functional, cell-based.
The test system of assay [12] is ESM. It is filed as functional, cell-based. As to conditions: Homo sapiens.
Assay [13] concerns ESM. The assay is described as follows: Tested for inhibitory effect on DNA virus TK-HSV-1 (B2006) in ESM cell line. It is filed as functional, cell-based. As to conditions: Homo sapiens.
The subject of assay [14] is MT4. As to the kind of experiment: Tested for inhibitory effect on RNA virus HIV-1 in MT-4 cell line. In kind it is functional, cell-based. As to conditions: Homo sapiens.
Assay [15] has as its system HeLa. The assay is described as follows: Tested for inhibitory effect on RNA virus RSV in HeLa cell line. It is filed as functional, cell-based. As to conditions: Homo sapiens.
Assay [16] relates to HeLa. In kind it is functional, cell-based. As to conditions: Homo sapiens.
Assay [17] has as its system Vero. It is filed as functional, cell-based. As to conditions: Chlorocebus sabaeus.
Assay [18] concerns Vero. As to the kind of experiment: Tested for inhibitory effect on RNA virus TV in Vero cell line. It is filed as functional, cell-based. As to conditions: Chlorocebus sabaeus.
Assay [19] deals with Vero. The assay is described as follows: Tested for inhibitory effect on RNA virus PV-3 in Vero cell line. In kind it is functional, cell-based. As to conditions: Chlorocebus sabaeus.
Another assay has as its system L1210. In kind it is functional, cell-based. As to conditions: Mus musculus.
Assay [20] deals with MDCK. The assay is described as follows: Tested for inhibitory effect on RNA virus Influenza B in MDCK cell line. It is filed as functional, cell-based. The note with it: Canis lupus familiaris.
The subject of assay [21] is HEL. In kind it is functional, cell-based. As to conditions: Homo sapiens.
For assay [22], the system named is HEL. As to the kind of experiment: Tested for inhibitory effect on DNA virus VZV (Oka) in HEL cell line. In kind it is functional, cell-based. As to conditions: Homo sapiens.
For assay [23], the system named is MDCK. The assay is described as follows: Tested for inhibitory effect on RNA virus Influenza A in MDCK cell line. It is filed as functional, cell-based. As to conditions: Canis lupus familiaris.
Assay [24] concerns ESM. The assay is described as follows: Tested for inhibitory effect on DNA virus TK-HSV-1(VMW 1837) in ESM cell line. In kind it is functional, cell-based. As to conditions: Homo sapiens.
Assay [25] deals with ESM. The assay is described as follows: Tested for inhibitory effect on DNA virus HSV-1(KOS) in ESM cell line. It is filed as functional, cell-based. The note with it: Homo sapiens.
Assay [26] deals with HeLa. As to the kind of experiment: Tested for inhibitory effect on RNA virus Polio-1 in HeLa cell line. It is filed as functional, cell-based. The note with it: Homo sapiens.
For assay [27], the system named is HEL. The assay is described as follows: Tested for inhibitory effect on DNA virus TK-VZV (07/1) in HEL cell line. In kind it is functional, cell-based. The note with it: Homo sapiens.
In assay [28] the test system is HEL. As to the kind of experiment: Tested for inhibitory effect on DNA virus CMV (Davis) in HEL cell line. In kind it is functional, cell-based. As to conditions: Homo sapiens.
The subject of assay [29] is Vero. The assay is described as follows: Tested for inhibitory effect on RNA virus SV in Vero cell line. In kind it is functional, cell-based. As to conditions: Chlorocebus sabaeus.
For a further assay, the system named is CCRF-CEM. It is filed as functional, cell-based. The note with it: Homo sapiens.
The test system of assay [30] is MT4. The assay is described as follows: cells. The note with it: Homo sapiens.
Assay [31] concerns Vero. As to the kind of experiment: Tested for inhibitory effect on RNA virus JV in Vero cell line. In kind it is functional, cell-based. The note with it: Chlorocebus sabaeus.
For assay [32], the system named is Vero. In kind it is functional, cell-based. As to conditions: Chlorocebus sabaeus. The source holds these as a separate data set.

Broadly, the IC50 is the concentration needed to halve the response being measured. Turning to `C[C@H]1OC(c2n[nH]c(C(N)=O)c2O)[C@H](O)[C@@H]1O` (some centres undefined), the IC50 is > 200 µg/mL in the assay on Vero [1]; 5.5 µg/mL (≈ 22.6 µM) in the assay on ESM [2]; > 175 µg/mL in the assay on Vero [3]; 100 µg/mL (≈ 411 µM) with MDCK [4]; 22 µg/mL (≈ 90.5 µM) in the assay on HEL [5]; > 40 µg/mL in the assay with HEL [6]. Further, the IC50 with MT4 [7] is > 4 µg/mL; with Vero [8], 70 µg/mL (≈ 288 µM); with FM3A, 39 µg/mL (≈ 160 µM); in the assay with HeLa [9] it was 14 µg/mL (≈ 57.6 µM); in the assay on HEL [10] it was > 40 µg/mL; with ESM [11] it was > 300 µg/mL. The IC50 in the assay on ESM [12] is ≥ 400 µg/mL; in the assay on ESM [13], 55 µg/mL (≈ 226 µM); in the assay with MT4 [14], > 4 µg/mL; in the assay on HeLa [15] it was 4 µg/mL (≈ 16.4 µM); in the assay on HeLa [16], ≥ 170 µg/mL; in the assay on Vero [17], > 400 µg/mL. In addition, the IC50 in the assay on Vero [18] is > 40 µg/mL; in the assay on Vero [19], > 200 µg/mL; in the assay on L1210 it was 37 µg/mL (≈ 152 µM); in the assay on MDCK [20] it was > 100 µg/mL; in the assay on HEL [21], > 50 µg/mL; in the assay on HEL [22] it was 40 µg/mL (≈ 164 µM). Also, the IC50 in the assay on MDCK [23] is 20 µg/mL (≈ 82.2 µM); with ESM [24], 70 µg/mL (≈ 288 µM); in the assay with ESM [25] it was ≥ 350 µg/mL; in the assay with HeLa [26] it was 55 µg/mL (≈ 226 µM); with HEL [27] it was > 40 µg/mL; in the assay with HEL [28], > 40 µg/mL. The IC50 with Vero [29] was > 200 µg/mL; in the assay on CCRF-CEM, > 49 µg/mL; with MT4 [30], 8.8 µg/mL (≈ 36.2 µM); with Vero [31], > 40 µg/mL.
Turning to `Nc1nc2c(ncn2COCCO)c(=O)[nH]1` [ACYCLOVIR], the IC50 is > 200 µg/mL in the assay with HEL [21], 22 µg/mL (≈ 97.7 µM) in the assay on HEL [28] and > 100 µg/mL in the assay on MT4 [30].
`NC(=O)c1ncn([C@@H]2O[C@H](CO)[C@@H](O)[C@H]2O)n1` [RIBAVIRIN]: the IC50 was ≥ 235 µg/mL in the assay with Vero [1]; 45 µg/mL (≈ 184 µM) in the assay with ESM [2]; 160 µg/mL (≈ 655 µM) in the assay with Vero [3]; > 200 µg/mL in the assay on MDCK [4]; > 5 µg/mL in the assay with MT4 [7]; 20 µg/mL (≈ 81.9 µM) in the assay on Vero [8]. Moreover, the IC50 is > 400 µg/mL with Vero [32]; 3.9 µg/mL (≈ 16 µM) in the assay on FM3A; 14 µg/mL (≈ 57.3 µM) in the assay with HeLa [9]; > 300 µg/mL in the assay on ESM [11]; ≥ 400 µg/mL in the assay with ESM [12]; > 135 µg/mL with ESM [13]. Also, the IC50 in the assay on MT4 [14] is > 5 µg/mL; in the assay on HeLa [15], 4 µg/mL (≈ 16.4 µM); with HeLa [16] it was ≥ 400 µg/mL; in the assay on Vero [18], 6.4 µg/mL (≈ 26.2 µM); with Vero [19], 20 µg/mL (≈ 81.9 µM); with L1210, 7.1 µg/mL (≈ 29.1 µM). For the same molecule, the IC50 in the assay with MDCK [20] was 4 µg/mL (≈ 16.4 µM); in the assay with MDCK [23], 4 µg/mL (≈ 16.4 µM); with ESM [24], 110 µg/mL (≈ 450 µM); in the assay on ESM [25], ≥ 350 µg/mL; with HeLa [26], 70 µg/mL (≈ 287 µM); in the assay with Vero [29] it was ≥ 250 µg/mL. Moreover, the results for the IC50 in the assay with CCRF-CEM, with MT4 [30] and with Vero [31] were 19 µg/mL (≈ 77.8 µM), 6.5 µg/mL (≈ 26.6 µM) and 5.2 µg/mL (≈ 21.3 µM), respectively.
